Assay results taken from patent US9023789B2, “Amylin analogs and pharmaceutical compositions thereof” (Novo Nordisk A/S, priority 2012, dated 2015).
pEC50, pIC50: −log10 of the molar value. Values after ≈ are worked out from the molar mass of the structure shown. Like-named read-outs stand apart in the source and are kept apart here. Blank lines part the entries; values can stand above or below the molecule they belong to. Numbered stars: 1 amine (or outer) side, 2 acyl side, 3 side chain; on linkers, the order of the positions; unused ones are H or OH. Bridge positions count the residues as written; N and C are the ends. Side chains are listed from the residue outwards. Peptide text beside a SMILES is read from it. * marks the point of attachment. C20 diacid = O=C(O)CCCCCCCCCCCCCCCCCCC(=O)*; γGlu = O=C(O)[C@H](CCC(=O)[*:2])N[*:1]

Tests used:
[1] = biological target: T1, human amylin 3(a) receptor (human calcitonin receptor + RAMP-3) in BHK570 cells (Homo sapiens, UniProt O60896+P30988); assay: ASSAY (II)a functional assay, human amylin receptor (CRE luciferase); assay type: cell-based; settings: for pEC50: human amylin receptor functional potency, assay (II), read-out: hAmylin-R funct. EC50
T1 construct: expressed in transfected cells
Method in brief: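 Cells were seeded and cultured overnight, then incubated with standard or sample for 3 h at 37° C in serum-containing medium at pH 7.4. The medium was then swapped for PBS, LucLite was added for 30 min at room temperature, and luminescence was recorded. Cells were BHK with CRE-luc and calcitonin receptor, ± RAMP-3.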

[2] = biological target: T2, human calcitonin (a) receptor in BHK570 cells (Homo sapiens, UniProt P30988); assay: ASSAY (II)a functional assay, human calcitonin receptor (CRE luciferase); assay type: cell-based; settings: read-out: hCTR funct. EC50
T2 construct: expressed in transfected cells
T2 sequence (P30988 25-474): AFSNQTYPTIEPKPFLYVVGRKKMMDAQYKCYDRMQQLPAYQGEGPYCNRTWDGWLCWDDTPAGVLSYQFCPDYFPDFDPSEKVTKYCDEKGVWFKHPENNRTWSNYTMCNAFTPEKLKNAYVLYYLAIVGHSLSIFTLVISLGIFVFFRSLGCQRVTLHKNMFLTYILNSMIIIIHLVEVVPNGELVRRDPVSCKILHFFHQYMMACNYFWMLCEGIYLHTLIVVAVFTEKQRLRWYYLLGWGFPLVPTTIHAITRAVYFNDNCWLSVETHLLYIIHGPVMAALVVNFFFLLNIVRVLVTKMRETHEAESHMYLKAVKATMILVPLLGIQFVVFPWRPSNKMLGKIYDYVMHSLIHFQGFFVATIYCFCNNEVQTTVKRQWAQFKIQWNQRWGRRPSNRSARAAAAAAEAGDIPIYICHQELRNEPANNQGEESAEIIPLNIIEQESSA
Description: 1. Luciferase Assay Outline
Activation of calcitonin and amylin (coexpression of calcitonin receptor and receptor activity modifying proteins (RAMP)) receptors lead to increased intracellular concentrations of cAMP. Consequently, transcription is activated by promoters containing multiple copies of the cAMP response element (CRE). It is thus possible to measure amylin activity by the use of a CRE luciferase reporter gene introduced into BHK cells also expressing calcitonin or amylin receptors.
2. Construction of Calcitonin (a)- and Amylin 3(a)-Receptor/CRE-Luc Cell Line.
The cell line was further transfected with RAMP-3, using standard methods. This turns the calcitonin receptor into an amylin 3(a) receptor. Methotrexate, Neomycin, and Hygromycin are selection markers for luciferase, the calcitonin receptor, and RAMP-3, respectively.
To perform activity assays, BHK calcitonin (a) receptor- or amylin 3(a)-receptor/CRE-luc cells were seeded in white 96 well culture plates at a density of about 20.000 cells/well. […] After incubation overnight at 37° C. and 5% CO2, the growth medium was replaced by 50 μl/well assay medium (DMEM (without phenol red), Glutamax™, 10% FBS, and 10 mM Hepes, pH 7.4). Further, 50 μl/well of standard or sample in assay buffer were added. After 3 hours incubation at 37° C. and 5% CO2, the assay medium with standard or sample were removed and replaced by 100 μl/well PBS. Further, 100 μl/well LucLite™ was added. The plates were sealed and incubated at room temperature for 30 minutes. Finally, luminescence was measured on a TopCounter (Packard) in SPC (single photon counting) mode.

[3] = biological target: T3, human amylin receptor (membranes from Amylin 3(a)/CRE-luc cells) (Homo sapiens, UniProt O60896+P30988); assay: ASSAY (V) binding to the human amylin receptor (SPA, 125I-rat amylin);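 also: competition binding of cell membranes (35 ng/µL) mixed with SPA beads in 384-well plates at 40 µL total volume, read by scintillation counting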
T3 construct: expressed in transfected cells
T3 sequence (P30988 25-474): T2 sequence (P30988 25-474)
T3 sequence (O60896 24-148 partner): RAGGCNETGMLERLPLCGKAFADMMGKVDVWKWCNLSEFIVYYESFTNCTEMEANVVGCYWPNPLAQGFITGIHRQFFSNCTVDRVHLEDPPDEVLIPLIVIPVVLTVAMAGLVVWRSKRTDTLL

[4] = biological target: T4, rat amylin receptor (rat calcitonin receptor + rat RAMP 3) (Rattus norvegicus, UniProt P32214+Q9JJ73); assay: ASSAY (VI) binding to the rat amylin receptor; settings: for pIC50: binding to rat amylin receptor, read-out: rAmylin-R bind IC50
T4 construct: expressed in transfected cells; host or cells: BHK tk'ts 13 (transient, FuGENE 6), membranes
T4 sequence (P32214 25-479 isoform P32214-2 limits assumed): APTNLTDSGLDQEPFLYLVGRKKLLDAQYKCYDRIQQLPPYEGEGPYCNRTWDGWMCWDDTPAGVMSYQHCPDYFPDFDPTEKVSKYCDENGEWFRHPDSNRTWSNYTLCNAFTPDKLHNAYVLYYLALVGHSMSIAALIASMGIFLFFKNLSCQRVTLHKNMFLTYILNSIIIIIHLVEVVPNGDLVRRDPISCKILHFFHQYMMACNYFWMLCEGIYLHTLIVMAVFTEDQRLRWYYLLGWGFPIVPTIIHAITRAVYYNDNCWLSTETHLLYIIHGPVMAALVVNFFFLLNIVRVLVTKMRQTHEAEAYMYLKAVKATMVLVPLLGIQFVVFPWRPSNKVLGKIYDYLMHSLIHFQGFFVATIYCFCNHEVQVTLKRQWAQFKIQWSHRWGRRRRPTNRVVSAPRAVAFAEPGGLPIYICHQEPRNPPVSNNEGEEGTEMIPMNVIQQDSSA
T4 sequence (Q9JJ73 23-147 partner): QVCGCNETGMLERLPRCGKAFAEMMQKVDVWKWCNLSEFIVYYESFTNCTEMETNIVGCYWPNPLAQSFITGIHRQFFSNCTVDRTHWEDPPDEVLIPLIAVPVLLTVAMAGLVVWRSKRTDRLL
Method: Assay (VI)—Determination of the Binding to the Rat Amylin Receptor […] The BHK tk′ts 13 cells were transiently transfected with rat calcitonin receptor using FuGENE® 6 (Roche), according to the manufacturer's recommendations. […] Approximately 48 hours after transfection, the cells were harvested and membranes were prepared.

[5] = biological target: T5, human calcitonin receptor (Homo sapiens, UniProt P30988); assay: ASSAY (VII) binding to the human calcitonin receptor (SPA, 125I-Calcitonin); settings: read-out: hCTR bind IC50;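 also: cell membranes (35 ng/µL) combined with SPA beads in 40 µL of pH 7.4 Hepes buffer, 384-well format, signal counted on a TopCounter instrument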
T5 construct: expressed in transfected cells
T5 sequence (P30988 25-474): T2 sequence (P30988 25-474)

[6] = ASSAY (IV) determination of solubility; assay type: physicochemical
Method: Assay (IV)—Determination of Solubility
The polypeptide was dissolved in water at −500 nmol/ml and mixed 1:1 with a series of buffers (100 mM glycylglycine pH 3.0, 100 mM glycylglycine pH 4.0, 100 mM glycylglycine pH 5.0, 100 mM bistrispropane pH 6.0, 100 mM bistrispropane pH 6.5, 100 mM bistrispropane pH 7.0, 100 mM bistrispropane pH 7.5, 100 mM bistrispropane pH 8.0). After 18 hours at room temperature the samples were centrifuged and the polypeptide concentration determined by UPLC.

rat calcitonin receptor = biological target: T6, rat calcitonin receptor (Rattus norvegicus, UniProt P32214); assay: ASSAY (VIII) binding to the rat calcitonin receptor; settings: Table 7, read-out: rCTR bind IC50
T6 construct: expressed in transfected cells; host or cells: BHK tk'ts 13 (transient, FuGENE 6), membranes
T6 sequence (P32214 25-479 isoform P32214-2 limits assumed): T4 sequence (P32214 25-479 isoform P32214-2 limits assumed)
Method: Assay (VIII)—Determination of Binding to the Rat Calcitonin Receptor
The BHK tk′ts 13 cells were transiently transfected with rat calcitonin receptor using FuGENE® 6 (Roche), according to the manufacturer's recommendations. Cells were grown in DMEM with 10% FBS and 1% Pen/Strep. Approximately 48 hours after transfection, the cells were harvested and membranes were prepared.

[7] = human functional selectivity: hCTR funct. EC50 / hAmylin-R funct. EC50
[8] = Table 5, selectivity, hCTR bind IC50 / hAmylin-R bind IC50
[9] = Table 7, human binding selectivity, included for comparison
[10] = Table 7, rat binding selectivity, rCTR IC50 / rAmylin-R IC50

Compound: CC[C@H](C)[C@H](NC(=O)[C@@H]1CCCN1C(=O)CNC(=O)[C@H](Cc1ccccc1)NC(=O)[C@H](CC(N)=O)NC(=O)[C@@H]1CCCN1C(=O)[C@H](CO)NC(=O)[C@H](CO)NC(=O)[C@H](Cc1c[nH]cn1)NC(=O)[C@H](CCCNC(=N)N)NC(=O)[C@H](CC(C)C)NC(=O)[C@H](Cc1ccccc1)NC(=O)[C@H](CCC(=O)O)NC(=O)[C@H](C)NC(=O)[C@H](CC(C)C)NC(=O)[C@H](CCCNC(=N)N)NC(=O)[C@H](CCC(N)=O)NC(=O)[C@@H](NC(=O)[C@H](C)NC(=O)[C@@H]1CSSC[C@H](NC(=O)[C@H](CCCCN)NC(=O)CC[C@H](NC(=O)CCCCCCCCCCCCCCCCCCC(=O)O)C(=O)O)C(=O)N[C@@H](CC(N)=O)C(=O)N[C@@H]([C@@H](C)O)C(=O)N[C@@H](C)C(=O)N[C@@H]([C@@H](C)O)C(=O)N1)[C@@H](C)O)C(=O)N[C@@H](CC(C)C)C(=O)N1CCC[C@H]1C(=O)N1CCC[C@H]1C(=O)N[C@H](C(=O)N[C@@H](CC(N)=O)C(=O)N[C@H](C(=O)NCC(=O)N[C@@H](CO)C(=O)N[C@@H](CC(N)=O)C(=O)N[C@H](C(=O)N1CCC[C@H]1C(N)=O)[C@@H](C)O)C(C)C)[C@@H](C)O [Example 4] ({C20 diacid-γGlu}-KCNTATCATQRLAEFLRHSSPNFGPILPPTNVGSNTP-NH2; disulfide 2-7)
- Ratio hCT/hAmylin funct. ([1]; hCTR funct. EC50 / hAmylin-R funct. EC50): 1.2
- Ratio hCT/hAmylin funct. ([1]; hCTR funct. EC50 over hAmylin-R funct. EC50): 1.2
- pEC50 [1]: 10.22
- Ratio hCT/hAmylin funct. [1, 7]: 1.2
- pEC50 [2]: 10.15
- pIC50 ([3]; Table 4, read-out: hAmylin-R bind IC50): 9.49
- Ratio hCT/hAmylin binding [3, 8]: 2.1
- Ratio hCT/hAmylin binding [3, 9]: 2.1
- pIC50 ([4]; Table 7): 8.88
- Ratio rCT/rAmylin binding [4, 10]: 3.1
- pIC50 [5]: 9.16

- pEC50 [1]: 9.69
- Ratio hCT/hAmylin funct. [1, 7]: 6.7
- pEC50 [2]: 8.86
- solubility at 18 h ([6]; bistrispropane buffer, pH 6.5, read-out: Solubility pH 6.5 Concentration): ≥ 200 µM
- solubility at 18 h ([6]; bistrispropane buffer, pH 7.5, read-out: Solubility pH 7.5 Concentration): ≥ 200 µM
- solubility at 18 h ([6]; bistrispropane buffer, pH 6.0, read-out: Solubility pH 6.0 Concentration): 189 µM (≈ 853 µg/mL)
- solubility at 18 h ([6]; bistrispropane buffer, pH 7.0, read-out: Solubility pH 7.0 Concentration): 195 µM (≈ 880 µg/mL)
- solubility at 18 h ([6]; bistrispropane buffer, pH 8.0, read-out: Solubility pH 8.0 Concentration): ≥ 200 µM
- solubility at 18 h ([6]; glycylglycine buffer, pH 3.0, read-out: Solubility pH 3.0 Concentration): ≥ 200 µM
- solubility at 18 h ([6]; glycylglycine buffer, pH 4.0, read-out: Solubility pH 4.0 Concentration): 96 µM (≈ 433 µg/mL)
- solubility at 18 h ([6]; glycylglycine buffer, pH 5.0, read-out: Solubility pH 5.0 Concentration): 141 µM (≈ 636 µg/mL)
- Ratio hCT/hAmylin binding [3, 8]: 17.3
- Ratio hCT/hAmylin binding ([3]; Table 5a, selectivity, hCTR bind IC50 / hAmylin-R bind IC50): 17.3
- Ratio hCT/hAmylin binding ([3]; Table 5b, selectivity, hCTR bind IC50 / hAmylin-R bind IC50): 17.3
- Ratio hCT/hAmylin binding [3, 9]: 17.3
- Ratio hCT/hAmylin binding ([3]; Table 7a (preferred compounds), human binding selectivity, included for comparison): 17.3
- Ratio hCT/hAmylin binding ([3]; ratio of human calcitonin receptor binding IC50 to human amylin receptor binding IC50): 17.3
- pIC50 ([4]; Table 7): 9.00
- Ratio rCT/rAmylin binding [4, 10]: 16.7
- Ratio rCT/rAmylin binding ([4]; Table 7a (preferred compounds), rat binding selectivity, rCTR IC50 / rAmylin-R IC50): 16.7
- Ratio rCT/rAmylin binding ([4]; ratio of rCTR bind IC50 to rAmylin-R bind IC50): 16.7
- pIC50 (rat calcitonin receptor): 7.78
Compound: CC(C)C[C@H](NC(=O)[C@H](CCCNC(=N)N)NC(=O)[C@H](CCC(N)=O)NC(=O)[C@@H](NC(=O)[C@H](C)NC(=O)[C@@H]1CSSC[C@H](NC(=O)[C@@H](N)CCCCNC(=O)CC[C@H](NC(=O)CC[C@H](NC(=O)CCCCCCCCCCCCCCCCCCC(=O)O)C(=O)O)C(=O)O)C(=O)N[C@@H](CC(N)=O)C(=O)N[C@@H]([C@@H](C)O)C(=O)N[C@@H](C)C(=O)N[C@@H]([C@@H](C)O)C(=O)N1)[C@@H](C)O)C(=O)N[C@@H](C)C(=O)N[C@@H](CC(=O)O)C(=O)N[C@@H](Cc1ccccc1)C(=O)N[C@@H](CC(C)C)C(=O)N[C@@H](CCCNC(=N)N)C(=O)N[C@@H](Cc1c[nH]cn1)C(=O)N[C@@H](CO)C(=O)N[C@@H](CO)C(=O)N[C@@H](CC(N)=O)C(=O)N1CCC[C@H]1C(=O)N[C@@H](Cc1ccccc1)C(=O)NCC(=O)N[C@@H](C)C(=O)N1CCC[C@H]1C(=O)N[C@@H](CC(C)C)C(=O)N[C@@H](CO)C(=O)N[C@@H](CO)C(=O)N[C@H](C(=O)N[C@@H](CC(N)=O)C(=O)N[C@H](C(=O)NCC(=O)N[C@@H](CO)C(=O)N[C@@H](CC(=O)O)C(=O)N[C@H](C(=O)N[C@@H](Cc1ccc(O)cc1)C(N)=O)[C@@H](C)O)C(C)C)[C@@H](C)O [Example 3] (H-K([γGlu-γGlu-C20 diacid])CNTATCATQRLADFLRHSSNPFGAPLSSTNVGSDTY-NH2; disulfide 2-7; N-terminus assumed)
